Results: PMC5515887, “Ruthenium-conjugated chrysin analogues modulate platelet activity, thrombus formation and haemostasis with enhanced efficacy” (Scientific Reports, 2017)
Read-outs that look alike come from different tables or passages of the source.

Legend:
washed human platelets = assay: Platelet uptake by LC-MS; assay type: in vitro ADME; conditions: 100 μM compound, 5 minutes
Description: The compounds taken up by the platelets were extracted with methanol (400 µL). The methanol extract was dried using vacuum centrifugation and reconstituted in 200 µL of methanol for mass spectrometry (LC-MS) analysis.

Src = assay: Immunoblot of Src phosphorylation at Y527 in CRP-XL activated platelets; assay type: cell-based, human; conditions: washed platelets, CRP-XL 0.5 μg/mL
Text: The calcium traces (Ai and Bi) shown are representative of three separate experiments. […] The platelets were lysed and used for immunoblot analysis to detect the level of AKT phosphorylation at residue S473, FAK phosphorylation at Y397 and phosphorylation of Src at Y527. The level of 14-3-3ζ protein was detected as a loading control. The cropped images of the blots shown here are representative of three separate experiments. The uncropped full length blots are presented in Supplementary Information (Figure S8).
Calcium mobilisation is associated with phosphoinositide 3-kinase (PI3K) signalling in platelets. Protein kinase B (AKT) is a downstream effector of PI3K and a key marker for the PI3K/AKT signalling pathway. […]
(§1) The preparation of human platelets and aggregation assays were performed using standard protocols as described by us previously, [16]. Briefly, human blood was collected in 3.2% citrate containing vacutainers via venepuncture from healthy, aspirin-free individuals with informed consent in accordance with the methods approved by the University of Reading Research Ethics Committee. […] Dense granule secretion in platelets was determined by measuring the ATP release using the luciferin-luciferase reagent by lumi-aggregometry (Chrono-Log, USA). […]

human whole blood = assay: In vitro thrombus formation under arterial flow conditions on collagen-coated Vena8 biochips; assay type: cell-based; conditions: 100 μM compound
Description: Platelet activation under arterial flow conditions culminates in the formation of thrombus at the damaged blood vessels and thereby reducing the blood supply to target tissues.
(§2) Thrombus formation was monitored by capturing Z-stack fluorescent images at every 30 seconds over 10 minutes by fluorescence microscopy. The images shown (A) at different time points and traces (B) are representative of three separate experiments. […] Data represent ± S.D. (n = 8 mice in each group).
Z-stack images of thrombi were obtained every 30 seconds for up to 10 minutes using a Nikon eclipse (TE2000-U) microscope (Nikon Instruments, UK). The median fluorescence intensity and thrombus volume were calculated by analysing the images using ImageJ.

[1] = system: dense granule secretion in washed platelets; assay: ATP release by lumi-aggregometry (marker for dense granule secretion); assay type: cell-based, human; conditions: 100 μM compound, CRP-XL 0.5 μg/mL
Description: (§3) Figure 5 Chrysin and its derivatives affect granule secretion in platelets. […] The level of P-selectin (as a marker for α-granule secretion) was quantified using PECy5-labelled anti-human P-selectin antibodies by flow cytometry. […] R represents ‘resting’ platelets. […] Platelets were then activated with 0.5 μg/mL CRP-XL and the ATP release was monitored for 5 minutes by lumi-aggregometry. The traces shown are representative of three separate experiments.
as §1, with “Committee. All methods were performed in accordance with the relevant institutional and national guidelines and regulations. Blood samples were centrifuged at 102 g for 20 minutes at room temperature to separate the PRP, which was used in aggregation, flow cytometry, static platelet adhesion, calcium mobilisation and clot retraction assays.” for “Committee.”

[2] = system: α-granule secretion in platelets; assay: P-selectin exposure by flow cytometry (marker for α-granule secretion); assay type: cell-based, human; conditions: PRP, CRP-XL 0.5 μg/mL
Description: Platelets primarily contain two types of granules (α- and dense granules) and the activation of platelets releases the granule contents to the external environment, where they play important roles in the stimulation of additional platelets and their recruitment to the growing thrombus. […] However, chrysin affected α-granule secretion only at a minimum concentration of 50 μM in platelets.
as §3

haemostasis in mice = assay: Tail bleeding assay; assay type: in vivo, C57BL/6 mice; conditions: final concentration 25 μM via femoral artery, 5 minutes before tail tip dissection, control 445 seconds
Description: as §2, with “group). The p values shown (*p < 0.05 and ***p < 0.001) are as calculated by non-parametric Mann-Whitney test using Graphpad Prism.” for “group).”
Following five minutes incubation, 1 mm of tail tip was dissected and the bleeding time was monitored.
The University of Reading Local Ethical Review Panel and the British Home Office approved the tail-bleeding assay performed in this study. All methods were performed in accordance with the relevant guidelines and regulations. In brief, C57BL/6 mice (9 weeks old; Envigo, UK) were anaesthetized using ketamine (80 mg kg^−1) and xylazine (5 mg kg^−1) administered via intraperitoneal route 20 minutes prior to the experiment and placed on a heated pad (37 °C). […] The tail tip was placed in sterile saline at 37 °C and the time to cessation of bleeding was measured up to 20 minutes.

[3] = target: T1, human serum albumin (HSA) (Homo sapiens, UniProt P02768); assay: HSA binding assay (TRANSIL XL HSA binding kit)
T1 construct: purchased Sovicell, Germany
T1 sequence (P02768 25-609): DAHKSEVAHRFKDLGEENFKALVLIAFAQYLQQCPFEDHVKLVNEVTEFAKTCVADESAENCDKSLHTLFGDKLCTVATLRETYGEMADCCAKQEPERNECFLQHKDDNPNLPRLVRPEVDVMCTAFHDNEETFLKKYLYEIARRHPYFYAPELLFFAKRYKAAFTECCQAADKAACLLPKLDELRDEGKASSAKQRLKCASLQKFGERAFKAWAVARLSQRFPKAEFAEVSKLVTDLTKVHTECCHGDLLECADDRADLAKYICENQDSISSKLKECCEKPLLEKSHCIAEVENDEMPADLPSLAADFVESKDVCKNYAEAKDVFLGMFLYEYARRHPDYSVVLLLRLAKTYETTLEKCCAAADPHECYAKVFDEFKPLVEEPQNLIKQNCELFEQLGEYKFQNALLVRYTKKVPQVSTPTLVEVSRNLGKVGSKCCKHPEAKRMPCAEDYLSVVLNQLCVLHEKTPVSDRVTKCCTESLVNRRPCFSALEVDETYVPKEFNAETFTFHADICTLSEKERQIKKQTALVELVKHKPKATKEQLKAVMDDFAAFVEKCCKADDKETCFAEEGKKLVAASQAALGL
Description: HSA binding assay was performed using TRANSIL^XL binding kit (Sovicell, Germany) according to the manufacturer’s protocol. […] The plate was then incubated on a plate shaker at 100 g for 12 minutes followed by centrifugation for 10 minutes at 750 g.

Compound: O=c1cc(-c2ccccc2)oc2cc(O)cc(O)c12 [chrysin]
- uptake in platelets (washed human platelets): 6.86 ± 0.27 µM
- effect on dephosphorylation of Src at Y527 (Src): significant impact on the dephosphorylation of Src at Y527
- inhibition at 100 µM (human whole blood; 10 min, 20 dynes/cm^2, read-out: inhibition of thrombus growth and volume): ~50%
- inhibition at 100 µM ([1]; Homo sapiens, Platelet): 100%
- concentrations that significantly inhibit α-granule secretion [2]: ≥ 50 µM
- bleeding time (average) (haemostasis in mice): 901 s
- Kd [3]: 1.93 µM
- fraction unbound at 12 min, 50 µM ([3]; human, plasma): 0.003

Compound: chlorido [(5-oxo-κO)-7-hydroxy-(2-phenyl)-4H-chromen-4-thionato-κS] (η6-p-cymene)ruthenium(II) [Ru-thio-chrysin]
- effect on dephosphorylation of Src at Y527 (Src): significant impact on the dephosphorylation of Src at Y527
- inhibition of thrombus growth and volume (human whole blood; 20 dynes/cm^2, 10 minutes): approximately 75%
- inhibition of dense granule secretion (ATP release) [1]: 100%
- inhibition of α-granule secretion (P-selectin) ([2]; 100 μM compound): approximately 80%
- concentrations that significantly inhibit α-granule secretion [2]: ≥ 12.5 µM
- bleeding time (average) (haemostasis in mice): 1096 s
- fraction bound to plasma (fb) ([3]; TRANSIL XL HSA binding kit): < 29.6%
- Kd ([3]; TRANSIL XL HSA binding kit, 50 µM compound, read-out: binding affinity (Kd) to HSA): 1400 µM
